Reference: patent publication US9932637B2, “Genetic polymorphisms associated with cardiovascular disorders and drug response, methods of detection and uses thereof” (CELERA CORPORATION, priority 2003, dated 2018)

Test system: patients with prior myocardial infarction (CARE study)
Assay: CARE: association of SNPs with pravastatin treatment in cardiovascular events prevention (logistic regression, odds ratio pravastatin vs placebo by genotype; Table 8)
Type: in vivo, human
Settings: for Non-fatal MI (def & prob), n/total (%) / Fatal CHD/Definite Non-fatal MI, n/total (%) / Coronary Artery Bypass or Revascularization, n/total (%) / Hosp. for Unstable Angina, n/total (%) / Total Coronary Heart Disease Events, n/total (%) / Fatal/Non-fatal Atherosclerotic CV Disease, n/total (%) / Hosp. for Cardiovascular Disease, n/total (%) / Total Cardiovascular Disease Events, n/total (%) / Prava vs. Placebo Odds Ratio, 0 Rare Alleles / Prava vs. Placebo Odds Ratio, 1 Rare Alleles / Cardiovascular Mortality, n/total (%) / Fatal Atherosclerotic Cardiovascular Disease, n/total (%) / Fatal/Non-fatal MI (def & prob), n/total (%): All Patients; for Non-fatal MI (def & prob), n/total (%) / Fatal CHD/Definite Non-fatal MI, n/total (%) / Coronary Artery Bypass or Revascularization, n/total (%) / Hosp. for Unstable Angina, n/total (%) / Total Coronary Heart Disease Events, n/total (%) / Fatal/Non-fatal Atherosclerotic CV Disease, n/total (%) / Hosp. for Cardiovascular Disease, n/total (%) / Total Cardiovascular Disease Events, n/total (%) / Cardiovascular Mortality, n/total (%) / Fatal Atherosclerotic Cardiovascular Disease, n/total (%) / Fatal/Non-fatal MI (def & prob), n/total (%): Prava
From the text: In order to identify genetic markers associated with acute coronary events (e.g. MI, stroke, unstable angina, congestive heart failure, etc.) or response to statin treatment for the prevention of coronary events, samples from the Cholesterol and Recurrent Events (CARE) study (a randomized multicentral double-blinded trial on secondary prevention of acute coronary events with pravastatin) (Sacks et al., 1991, Am. J. Cardiol. 68: 1436-1446) were genotyped. A well-documented myocardial infarction (MI) was one of the enrollment criteria for entry into the CARE study. Patients were enrolled in the CARE trial from 80 participating study centers. […] Patients were randomized to receive either 40 mg of pravastatin once daily or a matching placebo. The primary endpoint of the trial was death from coronary heart disease and the median duration of follow-up was 5.0 years (range, 4.0 to 6.2 years). […] Secondary endpoints of other related cardiovascular or metabolic disease events, and changes in clinical variables were also recorded in pravastatin-treated and placebo groups. All individuals included in the study had signed a written informed consent form and the study protocol was approved by the respective Institutional Review Boards (IRBs).
For genotyping SNPs in CARE patient samples, DNA was extracted from blood samples using conventional DNA extraction methods such as the QIA-amp kit from Qiagen. Genotypes were obtained on an ABI PRISM® 7900HT Sequence Detection PCR system (Applied Biosystems, Foster City, Calif.) by kinetic allele-specific PCR, similar to the method described by Germer et al. (Germer S., Holland M. J., Higuchi R. 2000, Genome Res. 10: 258-266).
Statistical analysis for association of SNPs with pravastatin treatment in cardiovascular events prevention (Table 8) was carried out using an overall logistic regression model that included an intercept, a parameter for the effect of a genotype containing two rare alleles versus a genotype containing no rare alleles, a parameter for the effect of a genotype containing one rare allele versus a genotype containing no rare alleles, a parameter for the effect of use of pravastatin versus the use of placebo, and parameters for the interaction effects between SNP genotypes and pravastatin use. The test of the overall model is a chi-square test with two degrees of freedom for analyses containing all three genotypes, and one degree of freedom for analyses containing two genotypes.
Effect sizes were estimated through odds ratios (pravastatin group versus placebo) for carriers of each genotype (groups of 0, 1, and 2 minor allele carriers). The effect was considered to be significant if p-value for testing whether any of the interactions between SNP genotypes and pravastatin use were <0.05. […] Odds ratios less than one indicate that the specific SNP allele has a protective effect and odds ratios greater than one indicate that the specific SNP allele has an adverse effect.

[1] = CR1 hCV25598594, 2 Rare Alleles, n/total 0/0
[2] = CR1 hCV25598594, Coronary Artery Bypass or Revascularization
[3] = CR1 hCV25598594, Fatal CHD/Definite Non-fatal MI
[4] = CR1 hCV25598594, Fatal/Non-fatal Atherosclerotic CV Disease
[5] = CR1 hCV25598594, Hosp. for Cardiovascular Disease
[6] = CR1 hCV25598594, Hosp. for Unstable Angina
[7] = CR1 hCV25598594, Non-fatal MI (def & prob)
[8] = CR1 hCV25598594, Total Cardiovascular Disease Events
[9] = CR1 hCV25598594, Total Coronary Heart Disease Events
[10] = CXCL16 hCV8718197, 0 Rare Alleles, n/total 12/468

CC[C@H](C)C(=O)O[C@H]1C[C@H](O)C=C2C=C[C@H](C)[C@H](CC[C@@H](O)C[C@@H](O)CC(=O)O)[C@H]21 [pravastatin]
Nonfatal MI (def & prob), n/total (%) (COL11A1 hCV8400671, All Patients, 2 Rare Alleles, Prava arm): (4.1%) | Non-fatal MI (def & prob), n/total (%) (CR1 hCV25598594, 0 Rare Alleles, n/total 132/1445): (9.1%) | Fatal CHD/Definite Non-fatal MI, n/total (%) (CR1 hCV25598594, 0 Rare Alleles, n/total 139/1445): (9.6%) | Coronary Artery Bypass or Revascularization, n/total (%) (CR1 hCV25598594, 0 Rare Alleles, n/total 212/1445): (14.7%) | Hosp. for Unstable Angina, n/total (%) (CR1 hCV25598594, 0 Rare Alleles, n/total 223/1445): (15.4%) | Total Coronary Heart Disease Events, n/total (%) (CR1 hCV25598594, 0 Rare Alleles, n/total 431/1445): (29.8%) | Fatal/Non-fatal Atherosclerotic CV Disease, n/total (%) (CR1 hCV25598594, 0 Rare Alleles, n/total 491/1445): (34.0%) | Hosp. for Cardiovascular Disease, n/total (%) (CR1 hCV25598594, 0 Rare Alleles, n/total 586/1445): (40.6%) | Total Cardiovascular Disease Events, n/total (%) (CR1 hCV25598594, 0 Rare Alleles, n/total 603/1445): (41.7%) | Fatal CHD/Definite Non-fatal MI, n/total (%) (CR1 hCV25598594, 1 Rare Allele, n/total 1/72): (1.4%) | Non-fatal MI (def & prob), n/total (%) (CR1 hCV25598594, 1 Rare Allele, n/total 2/72): (2.8%) | Coronary Artery Bypass or Revascularization, n/total (%) (CR1 hCV25598594, 1 Rare Allele, n/total 7/72): (9.7%) | Hosp. for Unstable Angina, n/total (%) (CR1 hCV25598594, 1 Rare Allele, n/total 8/72): (11.1%) | Total Coronary Heart Disease Events, n/total (%) (CR1 hCV25598594, 1 Rare Allele, n/total 11/72): (15.3%) | Fatal/Non-fatal Atherosclerotic CV Disease, n/total (%) (CR1 hCV25598594, 1 Rare Allele, n/total 15/72): (20.8%) | Hosp. for Cardiovascular Disease, n/total (%) (CR1 hCV25598594, 1 Rare Allele, n/total 23/72): (31.9%) | Total Cardiovascular Disease Events, n/total (%) (CR1 hCV25598594, 1 Rare Allele, n/total 24/72): (33.3%) | Coronary Artery Bypass or Revascularization, n/total (%) [1]: (0.0%) | Fatal CHD/Definite Non-fatal MI, n/total (%) [1]: (0.0%) | Fatal/Non-fatal Atherosclerotic CV Disease, n/total (%) [1]: (0.0%) | Hosp. for Cardiovascular Disease, n/total (%) [1]: (0.0%) | Hosp. for Unstable Angina, n/total (%) [1]: (0.0%) | Non-fatal MI (def & prob), n/total (%) [1]: (0.0%) | Total Cardiovascular Disease Events, n/total (%) [1]: (0.0%) | Total Coronary Heart Disease Events, n/total (%) [1]: (0.0%) | Prava vs. Placebo Odds Ratio, 0 Rare Alleles [2]: 0.74 | Prava vs. Placebo Odds Ratio, 1 Rare Alleles [2]: 0.23 | Prava vs. Placebo Odds Ratio, 0 Rare Alleles [3]: 0.76 | Prava vs. Placebo Odds Ratio, 1 Rare Alleles [3]: 0.06 | Prava vs. Placebo Odds Ratio, 0 Rare Alleles [4]: 0.81 | Prava vs. Placebo Odds Ratio, 1 Rare Alleles [4]: 0.25 | Prava vs. Placebo Odds Ratio, 0 Rare Alleles [5]: 0.79 | Prava vs. Placebo Odds Ratio, 1 Rare Alleles [5]: 0.33 | Prava vs. Placebo Odds Ratio, 0 Rare Alleles [6]: 0.87 | Prava vs. Placebo Odds Ratio, 1 Rare Alleles [6]: 0.31 | Prava vs. Placebo Odds Ratio, 0 Rare Alleles [7]: 0.74 | Prava vs. Placebo Odds Ratio, 1 Rare Alleles [7]: 0.12 | Prava vs. Placebo Odds Ratio, 0 Rare Alleles [8]: 0.78 | Prava vs. Placebo Odds Ratio, 1 Rare Alleles [8]: 0.33 | Prava vs. Placebo Odds Ratio, 0 Rare Alleles [9]: 0.81 | Prava vs. Placebo Odds Ratio, 1 Rare Alleles [9]: 0.22 | Cardiovascular Mortality, n/total (%) [10]: (2.6%) | Fatal Atherosclerotic Cardiovascular Disease, n/total (%) [10]: (2.6%) | Fatal/Non-fatal MI (def & prob), n/total (%) (CXCL16 hCV8718197, 0 Rare Alleles, n/total 33/468): (7.1%) | Fatal CHD/Definite Non-fatal MI, n/total (%) (CXCL16 hCV8718197, 0 Rare Alleles, n/total 36/468): (7.7%) | Coronary Artery Bypass or Revascularization, n/total (%) (CXCL16 hCV8718197, 0 Rare Alleles, n/total 56/468): (12.0%) | Total Coronary Heart Disease Events, n/total (%) (CXCL16 hCV8718197, 0 Rare Alleles, n/total 125/468): (26.7%) | Hosp. for Cardiovascular Disease, n/total (%) (CXCL16 hCV8718197, 0 Rare Alleles, n/total 177/468): (37.8%) | Total Cardiovascular Disease Events, n/total (%) (CXCL16 hCV8718197, 0 Rare Alleles, n/total 180/468): (38.5%) | Fatal Atherosclerotic Cardiovascular Disease, n/total (%) (CXCL16 hCV8718197, 1 Rare Allele, n/total 23/742): (3.1%) | Cardiovascular Mortality, n/total (%) (CXCL16 hCV8718197, 1 Rare Allele, n/total 24/742): (3.2%) | Fatal CHD/Definite Non-fatal MI, n/total (%) (CXCL16 hCV8718197, 1 Rare Allele, n/total 68/742): (9.2%) | Fatal/Non-fatal MI (def & prob), n/total (%) (CXCL16 hCV8718197, 1 Rare Allele, n/total 75/742): (10.1%) | Coronary Artery Bypass or Revascularization, n/total (%) (CXCL16 hCV8718197, 1 Rare Allele, n/total 119/742): (16.0%) | Total Coronary Heart Disease Events, n/total (%) (CXCL16 hCV8718197, 1 Rare Allele, n/total 220/742): (29.6%) | Hosp. for Cardiovascular Disease, n/total (%) (CXCL16 hCV8718197, 1 Rare Allele, n/total 305/742): (41.1%) | Total Cardiovascular Disease Events, n/total (%) (CXCL16 hCV8718197, 1 Rare Allele, n/total 314/742): (42.3%) | Cardiovascular Mortality, n/total (%) (CXCL16 hCV8718197, 2 Rare Alleles, n/total 19/292): (6.5%)
